Assay results published in article PMC7154053, “Chemical, Metabolic, and Cellular Characterization of a FtsZ Inhibitor Effective Against Burkholderia cenocepacia” (Frontiers in Microbiology, 2020).
≈ marks a conversion by molar mass, not a printed value. Where two headings read alike, the source gives them in different places.

T1: B. cenocepacia nitroreductase BCAL0539 (BcNR) (Burkholderia cenocepacia, UniProt B4E8I2)
T1 sequence (B4E8I2 1-242): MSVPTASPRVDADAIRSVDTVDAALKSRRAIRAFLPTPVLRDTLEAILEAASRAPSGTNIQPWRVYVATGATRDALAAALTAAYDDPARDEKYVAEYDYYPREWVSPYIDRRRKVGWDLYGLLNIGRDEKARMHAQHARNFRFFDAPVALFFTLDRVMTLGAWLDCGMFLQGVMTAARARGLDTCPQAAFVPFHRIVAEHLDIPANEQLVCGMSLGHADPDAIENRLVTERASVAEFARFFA


How the values were obtained:
[1] = biological target: T1, B. cenocepacia nitroreductase BCAL0539 (BcNR); experiment: BcNR nitroreductase steady-state kinetics (NADPH decrease at 340 nm); format: biochemical; settings: compound as substrate of BcNR
Procedure: (§1) The reaction mixture typically contained 50 mM potassium phosphate pH 8.0, 50 mM KCl, 5–10 μM BcNR, and reactions were started by adding the substrate. Steady-state kinetics parameters were determined by assaying the enzyme at variable concentrations of substrate (10–500 μM). The experiments were performed in triplicate, and the kinetic constants Km and kcat determined by fitting the data to the Michaelis-Menten equation using Origin 8 software.

[2] = system: B. cenocepacia FCF19; experiment: MIC, 2-fold microdilution, resazurin method; format: cell-based, Burkholderia cenocepacia; settings: clinical isolate FCF19; for MIC: Burkholderia cenocepacia
Procedure: (§2) Burkholderia cenocepacia strains, Escherichia coli ATCC 25922, Pseudomonas aeruginosa PAO1, and Staphylococcus aureus ATCC 25923 were grown in Luria-Bertani (LB) medium (Difco), if not differently specified, with shaking at 200 rpm, or on LB agar, at 37°C.
(§3) The microtiter plates were incubated at 37°C for 48 (for B. cenocepacia) or 24 h (for all the other strains) and growth was determined by the resazurin method (Martin et al., [2006]). A solution of resazurin sodium salt (Sigma Aldrich) was prepared at 0.01% in distilled water and filter-sterilized. Thirty microliter of resazurin solution were added to each well after 1 or 2 days of incubation at 37°C, and the microtiters were re-incubated at the same temperature for 4 h. The MIC was defined as the lowest concentration of the drug that prevented a change in color from blue to pink, which indicates bacterial growth.
(§4) Three independent biological replicates were used for each MIC determination.

[3] = system: B. cenocepacia FCF22; experiment: MIC, 2-fold microdilution, resazurin method; format: cell-based, Burkholderia cenocepacia; settings: clinical isolate FCF22; for MIC: Burkholderia cenocepacia
Procedure: as §2, §3, §4

[4] = system: B. cenocepacia J2315; experiment: MIC, 2-fold microdilution, resazurin method; format: cell-based, Burkholderia cenocepacia; settings: for MIC: Burkholderia cenocepacia; for activity compared with C109, in words: SAR statements, against both bacteria and the purified enzyme
Procedure: as §2, §3, §4

[5] = system: E. coli ATCC 25922; experiment: MIC, 2-fold microdilution, resazurin method; format: cell-based; settings: Escherichia coli
Procedure: as §2, §3, §4

[6] = system: P. aeruginosa PAO1; experiment: MIC, 2-fold microdilution, resazurin method; format: cell-based; settings: Pseudomonas aeruginosa
Procedure: as §2, §3, §4

[7] = system: S. aureus ATCC 25923; experiment: MIC, 2-fold microdilution, resazurin method; format: cell-based, Staphylococcus aureus; settings: Staphylococcus aureus
Procedure: as §2, §3, §4

[8] = biological target: Burkholderia cenocepacia purified FtsZ protein (Burkholderia cenocepacia, UniProt B4E5Y7); experiment: biochemical; format: biochemical; settings: for Inhibition of Bc FtsZ At 100 μM: 100 μM compound; for Inhibition of Bc FtsZ At 100 μM / Inhibits B. cenocepacia FtsZ GTPase at 100µM?: Yes/No; for Inhibits B. cenocepacia FtsZ GTPase at 100µM?: Supplementary Table 1
Procedure: All the recombinant FtsZ proteins were expressed at 20°C overnight in E. coli BL21(DE3) cells, upon induction with 0.5 mM IPTG, and purified using the same protocol assessed for the wild-type B. cenocepacia FtsZ (Hogan et al., [2018]).
GTPase enzyme activity was determined using a pyruvate kinase/L-lactic dehydrogenase (PK/LDH) spectrophotometric coupled assay (Ingerman and Nunnari, [2005]). The assays were performed at 30°C, in a reaction mixture containing […] Hepes pH 7.5, 5 mM MgCl2, 5 mM KCl, 10 U PK/LDH, 0.25 mM NADH, 0.25 mM PEP, and 5–10 μM FtsZ, and initiated by the addition of 0.5 mM GTP. Alternatively, GTPase activity was determined by measuring the release of phosphate using the malachite green assay (Baykov et al., [1988]).
(1) A[I]=A[0]×(1-[I]/[I]+IC50)
where A[I] is the enzyme activity at inhibitor concentration [I] and A[0] is the enzyme activity without inhibitor.

[9] = system: P. aeruginosa; experiment: Checkerboard assay with efflux pump inhibitor PaβN MC-207.110; format: cell-based, Pseudomonas aeruginosa; settings: Pseudomonas aeruginosa; read-out: MIC in the presence of MC-207.110, P. aeruginosa
Procedure: as §3, with “growth. […] Three independent biological replicates were used for each MIC determination.” for “growth.”

[10] = system: B. cenocepacia FCF19; experiment: as above; format: cell-based, Burkholderia cenocepacia; settings: checkerboard, MC-207.110 0–128 μg/ml; C109 value at 128 μg/ml
Procedure: as §3, with “growth. […] Three independent biological replicates were used for each MIC determination.” for “growth.”

[11] = system: B. cenocepacia FCF22; experiment: as above; format: cell-based, Burkholderia cenocepacia; settings: checkerboard, MC-207.110 0–128 μg/ml; C109 value at 128 μg/ml
Procedure: as §3, with “growth. […] Three independent biological replicates were used for each MIC determination.” for “growth.”

[12] = system: CF bronchial epithelial (CFBE41o-) cell line; experiment: Toxicity by MTT assay; format: cell-based; settings: CFBE41o- cells, data not shown
[13] = system: B. cenocepacia; experiment: Resazurin-based assay of BcNR reaction mixtures; format: cell-based, Burkholderia cenocepacia; settings: BcNR reactions with 1 mM C109, with or without NADPH; C109 result: in the absence of NADPH
Text: To assess whether the resulting BcNR reduction product could inhibit B. cenocepacia growth, we carried out a resazurin-based assay.

[14] = substrate: COC(=O)CSc1ccc2nsnc2c1[N+](=O)[O-]; experiment: BcNR nitroreductase steady-state kinetics (NADPH decrease at 340 nm); format: biochemical, Burkholderia cenocepacia; settings: other: compound as substrate of BcNR; pH 8.0; 37.0 °C
Procedure: as §1

[15] = substrate: O=C(O)c1ccc([N+](=O)[O-])cc1; experiment: as above; format: biochemical, Burkholderia cenocepacia; settings: other: compound as substrate of BcNR; pH 8.0; 37.0 °C
Procedure: as §1

[16] = ATCC25922, LB, 24 h, read-out: MIC E. coli 25922
[17] = PAO1, LB, 24 h, read-out: MIC P. aeruginosa PAO1
[18] = ATCC25923, LB, 24 h, read-out: MIC S. aureus 25923
[19] = J2315, LB, 48 h, read-out: MIC B. cenocepacia J2315
[20] = J2315, Supplementary Table 1, read-out: MIC (µg/ml) B. cenocepacia J2315
[21] = ATCC25922, Supplementary Table 1, read-out: MIC (µg/ml) E. coli 25922
[22] = PAO1, Supplementary Table 1, read-out: MIC (µg/ml) P. aeruginosa PAO1
[23] = ATCC25923, Supplementary Table 1, read-out: MIC (µg/ml) S. aureus 25923

Chain of Burkholderia cenocepacia purified FtsZ protein (B4E5Y7 entry or part of it): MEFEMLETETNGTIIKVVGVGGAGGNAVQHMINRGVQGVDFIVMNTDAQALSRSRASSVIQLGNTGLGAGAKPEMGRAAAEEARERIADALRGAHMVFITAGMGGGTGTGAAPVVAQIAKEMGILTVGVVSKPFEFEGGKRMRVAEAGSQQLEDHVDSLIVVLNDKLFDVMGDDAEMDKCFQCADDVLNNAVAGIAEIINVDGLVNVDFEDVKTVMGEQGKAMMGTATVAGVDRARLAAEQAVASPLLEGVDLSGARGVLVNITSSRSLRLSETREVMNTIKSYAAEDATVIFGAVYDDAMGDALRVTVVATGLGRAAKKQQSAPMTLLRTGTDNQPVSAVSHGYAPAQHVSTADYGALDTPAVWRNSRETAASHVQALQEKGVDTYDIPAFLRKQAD

Molecule | MIC [5, 16] [µg/mL] | MIC [6, 17] [µg/mL] | MIC [7, 18] [µg/mL] | Inhibition of Bc FtsZ At 100 μM [8] | Inhibits B. cenocepacia FtsZ GTPase at 100µM? [8] | melting point [°C] | MIC [4, 19] [µg/mL] | MIC [4, 20] [µg/mL] | activity compared with C109, in words [4] | MIC [5, 21] [µg/mL] | MIC [6, 22] [µg/mL] | MIC [7, 23] [µg/mL] | IC50 [8] [µM] | also measured
O=C(O)c1ccc([N+](=O)[O-])cc1 [4-nitrobenzoic acid] | – | – | – | – | – | – | – | – | – | – | – | – | – | Vmax (Figure 3) [1]: 17.5 ± 1.4 s⁻¹
O=[N+]([O-])c1c(N=C=S)ccc2nsnc12 [compound 10026149] | 16 (≈ 67.2 µM) | 16 (≈ 67.2 µM) | 2 (≈ 8.39 µM) | Yes | Yes | 185 to 187 | – | – | – | – | – | – | – | MIC [2]: 64 µg/mL (≈ 269 µM); MIC B. cenocepacia FCF19 [2]: resistance; MIC [3]: 256 µg/mL (≈ 1070 µM); MIC B. cenocepacia FCF22 [3]: resistance; MIC ([4]; J2315, 48 h, read-out: MIC (µg/ml) B. cenocepacia J2315): 32 µg/mL (≈ 134 µM); MIC ([4]; J2315, 48 h, read-out: MIC B. cenocepacia J2315): 32 µg/mL (≈ 134 µM); MIC ([5]; ATCC25922, 24 h, Supplementary Table 1, read-out: MIC (µg/ml) E. coli 25922): 16 µg/mL (≈ 67.2 µM); MIC ([6]; PAO1, 24 h, Supplementary Table 1, read-out: MIC (µg/ml) P. aeruginosa PAO1): 16 µg/mL (≈ 67.2 µM); MIC ([7]; ATCC25923, 24 h, Supplementary Table 1, read-out: MIC (µg/ml) S. aureus 25923): 2 µg/mL (≈ 8.39 µM); IC50 ([8]; read-out: Inhibition of Bc FtsZ IC50, GTPase activity): 20 µM
CCOC(=O)CSc1ccc2nsnc2c1[N+](=O)[O-] [compound 11426142] | 8 (≈ 26.7 µM) | 32 (≈ 107 µM) | 4 (≈ 13.4 µM) | Yes | Yes | 172 to 174 | 32 (≈ 107 µM) | 32 (≈ 107 µM) | partially lost activity | 8 (≈ 26.7 µM) | 32 (≈ 107 µM) | 4 (≈ 13.4 µM) | 21 | MIC [2]: 32 µg/mL (≈ 107 µM); MIC [3]: 32 µg/mL (≈ 107 µM); MIC [9]: 2 µg/mL; MIC in the presence of MC-207.110, FCF19 [10]: did not change; MIC in the presence of MC-207.110, FCF22 [11]: did not change; toxic concentration at 50% (TC50) [12]: 50 µM
O=C1CSc2ccc3nsnc3c2N1 [compound 11626109, 7H-[1,2,5]thiadiazolo[3,4-f][1,4]benzothiazin-8(9H)-one] | > 512 | – | > 512 | No | No | 211 to 213 | 512 (≈ 2290 µM) | 512 (≈ 2290 µM) | loss of activity | > 512 | – | > 512 | – | activity against B. cenocepacia growth [13]: not active
CCOC(=O)C(C)Sc1ccc2nsnc2c1[N+](=O)[O-] (centres unmarked) [compound 11826110] | 32 (≈ 102 µM) | > 256 | 32 (≈ 102 µM) | No | No | 153 to 155 | 16 (≈ 51.1 µM) | 16 (≈ 51.1 µM) | partially lost activity | 32 (≈ 102 µM) | > 256 | 32 (≈ 102 µM) | > 100 | –
COC(=O)C(C)Sc1ccc2nsnc2c1[N+](=O)[O-] (centres unmarked) [compound 11826363] | 16 (≈ 53.5 µM) | 256 (≈ 855 µM) | 64 (≈ 214 µM) | Yes | Yes | 161 to 163 | 16 (≈ 53.5 µM) | 16 (≈ 53.5 µM) | – | 16 (≈ 53.5 µM) | 256 (≈ 855 µM) | 64 (≈ 214 µM) | 30 | –
COC(=O)CSc1c(C)cc2nsnc2c1[N+](=O)[O-] [compound 11926141] | > 256 | > 256 | 32 (≈ 107 µM) | Yes | Yes | 172 to 174 | > 256 | > 256 | – | > 256 | > 256 | 32 (≈ 107 µM) | 100 | –
CCOC(=O)CSc1c(C)cc2nsnc2c1[N+](=O)[O-] [compound 11926142] | > 256 | > 256 | 32 (≈ 102 µM) | Yes | Yes | 181 to 183 | > 256 | > 256 | – | > 256 | > 256 | 32 (≈ 102 µM) | 100 | –
B. cenocepacia nitroreductase BCAL0539 (BcNR) (Burkholderia cenocepacia J2315) (protein) MSVPTASPRVDADAIRSVDTVDAALKSRRAIRAFLPTPVLRDTLEAILEAASRAPSGTNIQPWRVYVATGATRDALAAALTAAYDDPARDEKYVAEYDYYPREWVSPYIDRRRKVGWDLYGLLNIGRDEKARMHAQHARNFRFFDAPVALFFTLDRVMTLGAWLDCGMFLQGVMTAARARGLDTCPQAAFVPFHRIVAEHLDIPANEQLVCGMSLGHADPDAIENRLVTERASVAEFARFFA | – | – | – | – | – | – | – | – | – | – | – | – | – | Km [14]: 80 ± 5 µM; Vmax [14]: 71.9 µmol/min/mg; kcat [14]: 165 ± 5.9 s⁻¹; kcat/Km [14]: 2.064e+06 ± 20100 M⁻¹ s⁻¹; Km [15]: 200 ± 21 µM; Vmax [15]: 7.6 µmol/min/mg; kcat [15]: 17.5 ± 1.4 s⁻¹; kcat/Km [15]: 87500 ± 8100 M⁻¹ s⁻¹
